Measurements: ChEMBL document CHEMBL5226348, “Recent Progress of Small Molecule Menin-MLL Interaction Inhibitors as Therapeutic Agents for Acute Leukemia” (J Med Chem, 2021)

How the values were obtained:
[1] = system: MV4-11; test: Antiproliferative activity against human MV4-11 cells; format: functional
[2] = Oral bioavailability in mouse; format: ADME, organism-based; conditions: in vivo
[3] = molecular target: T1, Menin/Histone-lysine N-methyltransferase MLL (Homo sapiens, UniProt O00255); test: Inhibition of human Menin to MLL protein-protein interaction; format: protein assay
T1 sequence (O00255 whole entry): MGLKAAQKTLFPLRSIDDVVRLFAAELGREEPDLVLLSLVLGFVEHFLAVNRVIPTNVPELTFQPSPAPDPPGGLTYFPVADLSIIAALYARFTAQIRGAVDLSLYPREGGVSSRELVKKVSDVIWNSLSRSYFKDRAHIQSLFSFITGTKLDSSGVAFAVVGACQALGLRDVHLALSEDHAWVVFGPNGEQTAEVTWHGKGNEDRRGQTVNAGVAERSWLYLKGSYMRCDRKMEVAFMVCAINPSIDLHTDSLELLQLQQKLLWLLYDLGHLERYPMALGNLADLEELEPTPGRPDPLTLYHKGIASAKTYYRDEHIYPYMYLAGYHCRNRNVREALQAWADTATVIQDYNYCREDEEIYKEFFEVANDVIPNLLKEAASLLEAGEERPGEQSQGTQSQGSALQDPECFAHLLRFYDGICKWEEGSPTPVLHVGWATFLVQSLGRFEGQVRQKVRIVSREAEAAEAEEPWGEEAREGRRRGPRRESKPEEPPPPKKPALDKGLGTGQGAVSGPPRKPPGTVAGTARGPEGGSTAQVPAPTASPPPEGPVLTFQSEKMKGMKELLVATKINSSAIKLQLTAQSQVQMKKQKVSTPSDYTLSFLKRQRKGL
T1 sequence (Q03164 1-2718 partner limits assumed): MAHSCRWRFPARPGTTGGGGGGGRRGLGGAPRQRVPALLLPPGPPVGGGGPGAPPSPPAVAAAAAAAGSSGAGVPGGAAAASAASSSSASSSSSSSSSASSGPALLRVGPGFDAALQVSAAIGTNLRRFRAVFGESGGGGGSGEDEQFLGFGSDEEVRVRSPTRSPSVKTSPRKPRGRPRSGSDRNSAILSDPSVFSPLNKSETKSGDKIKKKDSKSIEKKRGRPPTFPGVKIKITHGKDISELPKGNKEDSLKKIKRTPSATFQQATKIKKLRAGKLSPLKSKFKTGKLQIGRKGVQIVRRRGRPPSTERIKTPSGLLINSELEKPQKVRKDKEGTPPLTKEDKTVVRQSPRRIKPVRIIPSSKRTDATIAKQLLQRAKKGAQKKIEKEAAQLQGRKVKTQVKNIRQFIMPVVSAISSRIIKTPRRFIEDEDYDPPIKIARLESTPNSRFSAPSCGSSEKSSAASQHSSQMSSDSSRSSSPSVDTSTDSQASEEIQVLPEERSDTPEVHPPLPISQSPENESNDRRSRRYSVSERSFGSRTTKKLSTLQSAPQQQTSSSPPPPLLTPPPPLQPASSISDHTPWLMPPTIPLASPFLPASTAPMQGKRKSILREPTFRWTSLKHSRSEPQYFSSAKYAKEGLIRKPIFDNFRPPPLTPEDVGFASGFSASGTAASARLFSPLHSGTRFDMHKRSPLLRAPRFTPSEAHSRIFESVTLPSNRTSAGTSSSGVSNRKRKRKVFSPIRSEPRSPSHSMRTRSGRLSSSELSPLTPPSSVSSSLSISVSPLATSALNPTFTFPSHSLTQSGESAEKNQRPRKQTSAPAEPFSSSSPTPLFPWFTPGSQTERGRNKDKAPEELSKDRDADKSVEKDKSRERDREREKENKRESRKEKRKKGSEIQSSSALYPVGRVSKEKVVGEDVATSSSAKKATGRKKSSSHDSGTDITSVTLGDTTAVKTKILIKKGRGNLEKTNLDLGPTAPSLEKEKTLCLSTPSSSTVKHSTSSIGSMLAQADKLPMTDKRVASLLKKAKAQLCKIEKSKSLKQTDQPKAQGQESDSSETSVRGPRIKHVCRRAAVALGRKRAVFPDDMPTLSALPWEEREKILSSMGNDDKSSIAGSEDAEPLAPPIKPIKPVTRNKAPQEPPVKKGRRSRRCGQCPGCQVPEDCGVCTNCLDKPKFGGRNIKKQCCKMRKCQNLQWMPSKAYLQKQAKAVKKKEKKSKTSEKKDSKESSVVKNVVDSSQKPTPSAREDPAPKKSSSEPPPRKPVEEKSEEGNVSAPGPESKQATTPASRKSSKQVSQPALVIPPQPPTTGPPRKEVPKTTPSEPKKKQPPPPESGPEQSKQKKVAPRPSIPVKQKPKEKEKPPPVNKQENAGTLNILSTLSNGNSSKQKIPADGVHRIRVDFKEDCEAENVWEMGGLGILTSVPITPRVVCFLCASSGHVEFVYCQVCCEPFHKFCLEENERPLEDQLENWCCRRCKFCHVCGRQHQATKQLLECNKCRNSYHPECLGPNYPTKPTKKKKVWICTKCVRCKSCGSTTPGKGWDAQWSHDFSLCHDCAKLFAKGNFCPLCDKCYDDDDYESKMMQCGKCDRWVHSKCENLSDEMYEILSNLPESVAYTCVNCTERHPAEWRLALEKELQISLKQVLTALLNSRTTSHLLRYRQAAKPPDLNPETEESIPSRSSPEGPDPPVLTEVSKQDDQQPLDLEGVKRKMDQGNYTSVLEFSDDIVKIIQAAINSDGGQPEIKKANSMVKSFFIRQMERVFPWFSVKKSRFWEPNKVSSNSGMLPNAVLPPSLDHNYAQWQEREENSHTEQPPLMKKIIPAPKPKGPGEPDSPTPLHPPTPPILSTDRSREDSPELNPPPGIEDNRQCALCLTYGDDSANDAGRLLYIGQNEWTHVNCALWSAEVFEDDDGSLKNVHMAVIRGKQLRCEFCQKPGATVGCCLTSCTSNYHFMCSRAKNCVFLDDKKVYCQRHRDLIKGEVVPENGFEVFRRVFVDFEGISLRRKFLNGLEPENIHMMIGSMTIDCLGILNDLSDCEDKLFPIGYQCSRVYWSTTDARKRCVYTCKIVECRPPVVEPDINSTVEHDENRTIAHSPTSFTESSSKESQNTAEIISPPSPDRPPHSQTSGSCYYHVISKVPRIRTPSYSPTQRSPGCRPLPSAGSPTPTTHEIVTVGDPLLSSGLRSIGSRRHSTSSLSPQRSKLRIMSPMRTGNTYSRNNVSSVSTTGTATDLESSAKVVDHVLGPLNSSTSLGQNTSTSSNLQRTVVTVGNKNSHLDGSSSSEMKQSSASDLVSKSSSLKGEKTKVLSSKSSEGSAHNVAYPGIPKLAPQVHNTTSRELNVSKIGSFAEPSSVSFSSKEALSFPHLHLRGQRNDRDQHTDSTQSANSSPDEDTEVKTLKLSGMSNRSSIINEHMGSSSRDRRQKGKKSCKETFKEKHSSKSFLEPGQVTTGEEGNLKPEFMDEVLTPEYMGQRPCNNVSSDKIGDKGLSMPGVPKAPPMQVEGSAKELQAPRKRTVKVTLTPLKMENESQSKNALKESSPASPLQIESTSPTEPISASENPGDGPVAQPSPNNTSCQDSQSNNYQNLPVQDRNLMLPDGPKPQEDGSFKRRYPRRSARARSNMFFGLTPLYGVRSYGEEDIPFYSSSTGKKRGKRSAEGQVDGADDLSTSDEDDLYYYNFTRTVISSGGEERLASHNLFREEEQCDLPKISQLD
T1 sequence (Q03164 2719-3969 partner limits assumed): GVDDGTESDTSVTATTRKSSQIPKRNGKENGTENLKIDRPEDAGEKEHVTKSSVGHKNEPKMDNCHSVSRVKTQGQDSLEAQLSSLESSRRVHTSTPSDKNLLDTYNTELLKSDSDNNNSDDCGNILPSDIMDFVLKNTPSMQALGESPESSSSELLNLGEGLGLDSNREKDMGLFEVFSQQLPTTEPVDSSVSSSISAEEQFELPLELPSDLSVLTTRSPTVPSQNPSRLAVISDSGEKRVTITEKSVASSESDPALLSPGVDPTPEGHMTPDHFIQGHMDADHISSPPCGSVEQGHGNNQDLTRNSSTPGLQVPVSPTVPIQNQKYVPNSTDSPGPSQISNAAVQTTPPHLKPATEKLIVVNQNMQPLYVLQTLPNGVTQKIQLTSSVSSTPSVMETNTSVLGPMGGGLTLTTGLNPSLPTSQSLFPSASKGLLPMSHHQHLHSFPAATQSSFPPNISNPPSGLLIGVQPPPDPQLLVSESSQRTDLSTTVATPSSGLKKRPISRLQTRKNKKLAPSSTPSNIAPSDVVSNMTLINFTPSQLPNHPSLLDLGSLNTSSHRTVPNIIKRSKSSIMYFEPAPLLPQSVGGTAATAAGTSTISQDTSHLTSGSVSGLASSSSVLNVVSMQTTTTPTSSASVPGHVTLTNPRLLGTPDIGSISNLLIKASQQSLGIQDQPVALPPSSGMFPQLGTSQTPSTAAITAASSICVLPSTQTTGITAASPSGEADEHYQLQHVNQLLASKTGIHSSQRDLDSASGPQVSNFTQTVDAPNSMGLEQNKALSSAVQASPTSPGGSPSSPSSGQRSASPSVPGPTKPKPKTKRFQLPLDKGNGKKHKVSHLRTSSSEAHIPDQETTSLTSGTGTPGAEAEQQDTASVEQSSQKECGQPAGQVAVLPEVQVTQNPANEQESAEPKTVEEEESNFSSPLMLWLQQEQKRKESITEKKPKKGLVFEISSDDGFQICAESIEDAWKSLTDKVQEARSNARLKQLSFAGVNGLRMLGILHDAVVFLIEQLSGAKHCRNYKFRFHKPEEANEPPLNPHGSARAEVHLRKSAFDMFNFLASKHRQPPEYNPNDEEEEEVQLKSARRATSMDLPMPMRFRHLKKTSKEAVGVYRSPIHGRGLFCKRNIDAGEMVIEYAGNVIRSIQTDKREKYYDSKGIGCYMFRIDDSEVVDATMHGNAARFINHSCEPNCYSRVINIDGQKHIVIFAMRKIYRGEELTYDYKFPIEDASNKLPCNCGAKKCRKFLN

[4] = system: MOLM-13; test: Antiproliferative activity against human MOLM-13 cells; format: functional
[5] = molecular target: T1, Menin/Histone-lysine N-methyltransferase MLL; test: Inhibition of Menin to MLL (unknown origin) protein-protein interaction; format: protein assay

Row | Structure (SMILES) | GI50 [1] [nM] | IC50 [3] [nM] | GI50 [4] [nM] | IC50 [5] [nM] | also measured
1 | CCCc1cc2c(N3CCN(C4=NCC(C)(C)S4)CC3)ncnc2s1 | 9500 |  |  |  | 
2 | Cc1c(CN2CCC(Nc3ncnc4sc(CC(F)(F)F)cc34)CC2)ccc2c1cc(C#N)n2Cc1cn[nH]c1 |  |  |  |  | bioavailability [2]: 73%
3 | Cc1c(CN2CCC(Nc3ncnc4sc(CC(F)(F)F)cc34)CC2)ccc2[nH]c(C#N)cc12 |  |  |  |  | bioavailability [2]: 44%
4 | NCC(CCN1CC=C(c2ccc(Cl)cc2)CC1)(c1ccccc1)C1CCCC1 (stereo not given) |  | 0.83 |  |  | 
5 | COC(=O)N[C@H]1CCC[C@@H]1[C@](C#N)(c1cccc(F)c1)C1CCN(CC2CN(c3ccc(S(=O)(=O)C4CN(C(=O)/C=C/CN(C)C)C4)cc3)C2)CC1 | 2.7 |  | 15.4 |  | 
6 | CC(C)N(C(=O)c1cc(F)ccc1Oc1cncnc1N1CC2(CCN(C[C@H]3CC[C@H](NS(C)(=O)=O)CC3)CC2)C1)C(C)C | 17 |  | 13 | 40000 | 
7 | CNc1nc(NC2CCN(Cc3ccc4c(cc(C#N)n4CC45CC(NC=O)(C4)C5)c3C)CC2)c2cc(CC(F)(F)F)sc2n1 | 7.6 | 0.5 | 12.5 |  | 
8 | O=c1cccc2n1C[C@@H]1C[C@H]2CN(CC(O)CSCc2ccccc2)C1 (stereo not given in full) |  |  |  | 40 | 
9 | Clc1ccc2c(NCCN3CCN(CCCCCCCN4CCN(CCNc5ccnc6cc(Cl)ccc56)CC4)CC3)ccnc2c1 |  | 4.7 |  |  | 
10 | C[C@@]12CN(CC(O)CCCc3ccccc3)C[C@@](C)(C1)c1cccc(=O)n1C2 (stereo not given in full) |  |  |  | 1 | 
